Data: ChEMBL document CHEMBL4266058, “2-Aminoadipic Acid-C(O)-Glutamate Based Prostate-Specific Membrane Antigen Ligands for Potential Use as Theranostics” (ACS Med Chem Lett, 2018)

target: Glutamate carboxypeptidase 2 (Homo sapiens, UniProt Q04609); assay: Inhibition of recombinant human PSMA using [3H]NAAG as substrate preincubated for 15 mins followed by substrate addition measured after 20 mins by liquid scintillation method
Sequence (Q04609 whole entry): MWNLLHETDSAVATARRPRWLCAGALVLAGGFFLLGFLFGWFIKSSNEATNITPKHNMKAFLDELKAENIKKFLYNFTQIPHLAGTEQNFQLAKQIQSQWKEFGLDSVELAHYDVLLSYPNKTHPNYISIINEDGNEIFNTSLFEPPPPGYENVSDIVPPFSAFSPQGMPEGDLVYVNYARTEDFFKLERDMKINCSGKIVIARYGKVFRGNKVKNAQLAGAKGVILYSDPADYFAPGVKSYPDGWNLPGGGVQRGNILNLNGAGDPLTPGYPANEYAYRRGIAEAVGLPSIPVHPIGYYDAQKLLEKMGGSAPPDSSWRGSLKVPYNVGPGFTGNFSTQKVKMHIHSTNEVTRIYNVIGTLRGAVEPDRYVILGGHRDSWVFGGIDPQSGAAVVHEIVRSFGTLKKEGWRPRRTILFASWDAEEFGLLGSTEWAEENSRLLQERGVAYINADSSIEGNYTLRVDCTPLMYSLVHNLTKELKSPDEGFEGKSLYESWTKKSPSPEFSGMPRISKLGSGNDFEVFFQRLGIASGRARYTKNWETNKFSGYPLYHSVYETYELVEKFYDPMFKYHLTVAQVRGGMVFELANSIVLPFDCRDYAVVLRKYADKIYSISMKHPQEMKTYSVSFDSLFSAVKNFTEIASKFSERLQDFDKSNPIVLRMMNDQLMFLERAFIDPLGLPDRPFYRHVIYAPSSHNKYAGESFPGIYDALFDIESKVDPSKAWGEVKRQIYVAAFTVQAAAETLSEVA

| SMILES | IC50 |
| --- | --- |
| O=C(O)CC[C@H](NC(=O)N[C@@H](CCCC(=O)NCc1ccc(F)cc1)C(=O)O)C(=O)O | 2.32 nM |
| O=C(O)CC[C@H](NC(=O)N[C@@H](CCCC(=O)Nc1ccc(F)cc1)C(=O)O)C(=O)O | 0.35 nM |
| O=C(O)CC[C@H](NC(=O)N[C@@H](CCCC(=O)N1CCN(c2ccc(F)cc2)CC1)C(=O)O)C(=O)O | 1.31 nM |
| C[C@@H](NC(=O)CCC[C@H](NC(=O)N[C@@H](CCC(=O)O)C(=O)O)C(=O)O)c1ccc(F)cc1 | 5.44 nM |
| CN(C(=O)CCC[C@H](NC(=O)N[C@@H](CCC(=O)O)C(=O)O)C(=O)O)c1ccc(F)nc1 | 0.075 nM |
| O=C(O)CC[C@H](NC(=O)N[C@@H](CCCC(=O)NCCNC(=O)c1ccc(F)cc1)C(=O)O)C(=O)O | 0.94 nM |
| O=C(O)CC[C@H](NC(=O)N[C@@H](CCCC(=O)NCc1ccccc1F)C(=O)O)C(=O)O | 2.11 nM |
| O=C(O)CC[C@H](NC(=O)N[C@@H](CCCC(=O)Nc1ccc(F)nc1)C(=O)O)C(=O)O | 0.99 nM |

Second part, the molecule after the results:

| IC50 | SMILES |
| --- | --- |
| 1.11 nM | O=C(O)CC[C@H](NC(=O)N[C@@H](CCCC(=O)NCCNC(=O)c1ccc(F)nc1)C(=O)O)C(=O)O |
| 2.91 nM | O=C(O)CC[C@H](NC(=O)N[C@@H](CCCC(=O)NCc1cccc(F)c1)C(=O)O)C(=O)O |
| 0.15 nM | O=C(O)CC[C@H](NC(=O)N[C@@H](CCCC(=O)N(CCNC(=O)c1ccc(F)cc1)c1ccccc1)C(=O)O)C(=O)O |
| 0.13 nM | O=C(O)CC[C@H](NC(=O)N[C@@H](CCCC(=O)N(CCNC(=O)c1ccc(F)nc1)c1ccccc1)C(=O)O)C(=O)O |
| 0.28 nM | O=C(O)CC[C@H](NC(=O)N[C@@H](CCCC(=O)Nc1cccc(F)c1)C(=O)O)C(=O)O |
| 4.46 nM | C[C@H](NC(=O)CCC[C@H](NC(=O)N[C@@H](CCC(=O)O)C(=O)O)C(=O)O)c1ccc(F)nc1 |
| 0.46 nM | CN(Cc1cccc(F)c1)C(=O)CCC[C@H](NC(=O)N[C@@H](CCC(=O)O)C(=O)O)C(=O)O |
| 5.24 nM | C[C@H](NC(=O)CCC[C@H](NC(=O)N[C@@H](CCC(=O)O)C(=O)O)C(=O)O)c1ccc(F)cc1 |
| 1.19 nM | O=C(O)CC[C@H](NC(=O)N[C@@H](CCCC(=O)NC(c1ccc(F)cc1)c1ccc(F)cc1)C(=O)O)C(=O)O |
| 0.2 nM | CN(C(=O)CCC[C@H](NC(=O)N[C@@H](CCC(=O)O)C(=O)O)C(=O)O)c1ccc(F)cc1 |
| 0.64 nM | CN(Cc1ccc(F)cc1)C(=O)CCC[C@H](NC(=O)N[C@@H](CCC(=O)O)C(=O)O)C(=O)O |
